Assay results: patent publication US8022617B2, “Organic compound, charge-transporting material, composition for charge-transporting material and organic electroluminescent device” (Mitsubishi Chemical Corporation, priority 2005, dated 2011)

Assay: Solubility in toluene
Assay type: physicochemical
Settings: solvent toluene
From the text: As described below, an aromatic hydrocarbon is preferred as a solvent contained in a composition for charge-transporting material. Toluene is a typical aromatic hydrocarbon and is used as an index of the solubility of the organic compound (charge-transporting material) in the present invention.

SMILES | dissolved in toluene in an amount of [percent by weight]
O=c1n(-c2cccc(-n3c4ccccc4c4ccccc43)c2)c2ccccc2n1-c1cccc(-n2c3ccccc3c3ccccc32)c1 [Target Compound 4] | ≥ 3
O=c1n(-c2ccc(N(c3ccccc3)c3ccc(-c4ccccc4)cc3)cc2)c2ccccc2n1-c1ccc(N(c2ccccc2)c2ccc(-c3ccccc3)cc2)cc1 [Target Compound 5] | ≥ 5.0
O=c1n(-c2cccc(-c3ccccc3)c2)c2ccccc2n1-c1cccc(-c2ccccc2)c1 [Target Compound 6] | ≥ 5.0
O=c1n(-c2cccc(-n3c4ccccc4c4ccncc43)c2)c2ccccc2n1-c1cccc(-n2c3ccccc3c3ccncc32)c1 [Target Compound 12] | ≥ 3
O=c1n(-c2cccc(-n3c4ccccc4c4ccccc43)c2)c2cccnc2n1-c1cccc(-n2c3ccccc3c3ccccc32)c1 [Target Compound 16] | ≥ 3
